Data as given in PubChem BioAssay AID624258 (Broad Institute, 2012).
Active and inactive are the calls of the source. The rule behind the calls is not given here.

Assay: Yeast SKN7 toxicity growth rescue counterscreen, Saccharomyces cerevisiae, plate reader, dose confirmatory (AID 624258);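 note: growth read after three days of incubation at 30 °C; 0% = median of neutral control wells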
Conditions: S. cerevisiae SKN7-toxicity growth rescue, plate reader; at 2.1 µM (top of the series)

**Q.** For `C=C1C(=O)C23CCC4C(C)(C(=O)OC)CCCC4(C)C2CCC1(O)C3` (stereo not drawn), which growth rescue activity is on record?
**A.** -9.52% (inactive)

**Q.** With `CCc1ccc(C(C)NC(=S)NC2CCCCC2)cc1` (stereo not drawn) as the compound, how does the growth rescue activity read?
**A.** -19.4% (inactive)

Same assay, conditions: S. cerevisiae SKN7-toxicity growth rescue, plate reader; at 6.8 µM (top of the series)

**Q.** With `Cc1ccc(C(=O)C(SC(C)(C)C)n2cncn2)cc1` (stereo not drawn) as the compound, how does the growth rescue activity read?
**A.** 27.6% (inactive)

**Q.** Which growth rescue activity does the source give for `CCOC(=O)c1cc2c(=Cc3ccc(N(C)C)cc3)c3ccccc3n2[n+]1C` here?
**A.** -71.9% (inactive)

**Q.** For `COc1cc2c(cc1OC)C(C)N(C(=O)c1cccc([N+](=O)[O-])c1)CC2` (stereo not drawn), which growth rescue activity is on record?
**A.** -17.8% (inactive)

Same assay, conditions: S. cerevisiae SKN7-toxicity growth rescue, plate reader; at 19.5 µM (top of the series)

**Q.** For `O=C(COc1ccc(Cl)cc1)Nc1cccc(-c2ccc3nncn3n2)c1`, which growth rescue activity is on record?
**A.** 13% (inactive)

**Q.** With `O=C1OCC(CO)(CO)N=C1NNc1ccc(Cl)c(Cl)c1` as the compound, how does the growth rescue activity read?
**A.** -52.3% (inactive)

**Q.** With `O=c1c(/C=N/O)coc2ccc(Cl)cc12` as the compound, how does the growth rescue activity read?
**A.** -4.03% (inactive)

**Q.** Which growth rescue activity does the source give for `Oc1c(C(Nc2ccccn2)c2cccnc2)cc(Cl)c2cccnc12` (stereo not drawn) here?
**A.** -70.7% (inactive)

**Q.** Which growth rescue activity does the source give for `Oc1ccc(/C=N/Nc2ccc(C(F)(F)F)cn2)c(O)c1` here?
**A.** -73.7% (inactive)

**Q.** With `CC1CCN(c2nc(-c3ccncc3)nc3ccccc23)CC1` as the compound, how does the growth rescue activity read?
**A.** -17.2% (inactive)

**Q.** For `CN(C)c1ccc(NC2=C(Cl)C(=O)c3ccccc3C2=O)cc1`, which growth rescue activity is on record?
**A.** -12.8% (inactive)

**Q.** Which growth rescue activity does the source give for `Oc1c(C(Nc2cccc(C(F)(F)F)c2)c2ccncc2)ccc2cccnc12` (stereo not drawn) here?
**A.** -60.6% (inactive)

**Q.** For `CN(C)c1nc(SCc2ccc(Cl)cc2)nc2c1CCCC2`, which growth rescue activity is on record?
**A.** -65.9% (inactive)

**Q.** With `CCOc1ccc(S(=O)(=O)n2cc(F)c(=O)[nH]c2=O)cc1` as the compound, how does the growth rescue activity read?
**A.** -4.21% (inactive)

**Q.** With `O=C1c2ccccc2-n2c1nc1ccccc1c2=O` as the compound, how does the growth rescue activity read?
**A.** -48.7% (inactive)

**Q.** For `O=C(c1cc(COc2ccc(F)cc2Cl)on1)N1CCC(c2ccncc2)CC1`, which growth rescue activity is on record?
**A.** -20.9% (inactive)

**Q.** Which growth rescue activity does the source give for `O=C(O)c1c(NC(=O)N2CCCC2)sc2c1CCCC2` here?
**A.** -88% (inactive)

**Q.** For `C=C(C)COc1ccc(-c2[nH]ncc2-c2ccccc2)c(O)c1`, which growth rescue activity is on record?
**A.** -93.2% (inactive)

**Q.** For `CCCCOC(=O)/C=C/c1ccc(OC(=O)OC)c(OC(=O)OC)c1`, which growth rescue activity is on record?
**A.** -13.9% (inactive)

**Q.** Which growth rescue activity does the source give for `O=C(Nc1nnc(-c2cccs2)o1)c1cccc(Oc2ccccc2)c1` here?
**A.** -6.4% (inactive)

**Q.** With `CCN(CC)S(=O)(=O)c1ccc(N=NC2=C(O)CC(C)(C)CC2=O)cc1` as the compound, how does the growth rescue activity read?
**A.** -10.4% (inactive)

**Q.** For `CCOc1cc([N+](=O)[O-])cc(/C=N/NC(=O)c2c(-c3ccccc3)noc2C)c1O`, which growth rescue activity is on record?
**A.** 0.098% (inactive)

**Q.** For `O=[N+]([O-])c1cccc(C=NNc2ccc3ccccc3n2)c1O`, which growth rescue activity is on record?
**A.** -79.2% (inactive)

**Q.** For `CC(=O)Nc1cccc(-c2cc(-c3c(Cl)cccc3Cl)no2)c1`, which growth rescue activity is on record?
**A.** -92.6% (inactive)

**Q.** Which growth rescue activity does the source give for `COC(=O)Cc1cc(=O)n(-c2ccccc2)[nH]1` here?
**A.** 9.07% (inactive)

**Q.** For `O=S(=O)(O)c1cc(Cl)cc(N=Nc2ccc(O)cc2O)c1O`, which growth rescue activity is on record?
**A.** 41.4% (inactive)

**Q.** For `Cc1ccc(NC(=S)c2nc3ccccc3[nH]2)c(C)c1`, which growth rescue activity is on record?
**A.** 32.1% (inactive)

**Q.** Which growth rescue activity does the source give for `Cc1cc(NC2=CC(=O)C(=O)c3ccccc32)no1` here?
**A.** -9.16% (inactive)

**Q.** With `Cc1ccc(Sc2cc(C)nc(-c3ccccn3)n2)cc1` as the compound, how does the growth rescue activity read?
**A.** -67.1% (inactive)

**Q.** For `COc1cc2c(cc1OC)C(C)N(C(=O)C1COc3ccccc3O1)CC2` (stereo not drawn), which growth rescue activity is on record?
**A.** 14.6% (inactive)

**Q.** Which growth rescue activity does the source give for `CCOC(=O)c1nnn(-c2ccc([N+](=O)[O-])cc2[N+](=O)[O-])c1C` here?
**A.** 17.3% (inactive)

**Q.** Which growth rescue activity does the source give for `CCCSC(=S)c1c(C)[nH]n(-c2ccccc2)c1=O` here?
**A.** -53% (inactive)

**Q.** For `C[C@]12CC[C@H](O)CC1=CCC1C2CC[C@@]2(C)C1CC[C@@H]2NC(=O)[C@@H](N)Cc1cnc[nH]1` (stereo partly drawn), which growth rescue activity is on record?
**A.** 26.3% (inactive)

**Q.** For `Cc1ccc(O)c(-c2cc(-c3ccccc3C)[nH]n2)c1`, which growth rescue activity is on record?
**A.** -92.1% (inactive)

**Q.** For `O=c1oc(-c2ccccc2)cc(Cl)c1Cl`, which growth rescue activity is on record?
**A.** -71.1% (inactive)

**Q.** Which growth rescue activity does the source give for `S=c1[nH]nc(-c2ccco2)n1/N=C/c1ccc(Br)s1` here?
**A.** 30.2% (inactive)

**Q.** Which growth rescue activity does the source give for `CN(C(=O)COC(=O)c1ccc([N+](=O)[O-])cc1Cl)C1CCCCC1` here?
**A.** 139% (inactive)

**Q.** For `CC(C)(C)c1ccc(S(=O)(=O)/N=C2\C=C(NS(=O)(=O)c3ccccc3)C(=O)c3ccccc32)cc1`, which growth rescue activity is on record?
**A.** -5.91% (inactive)

**Q.** For `CCOC(=O)C1CCCN(C(=O)c2cc(-c3ccc(C)cc3)nc3ccccc23)C1` (stereo not drawn), which growth rescue activity is on record?
**A.** 25.9% (inactive)

**Q.** For `c1ccc(C(=NNc2nc3ccccc3s2)c2ccccn2)cc1`, which growth rescue activity is on record?
**A.** -69.9% (inactive)

**Q.** With `Cc1ccsc1/C=C/c1ccc2cccc(O)c2n1` as the compound, how does the growth rescue activity read?
**A.** -50.7% (inactive)

**Q.** Which growth rescue activity does the source give for `CCCC(C)Sc1nc2c([nH]1)c(=S)n(C)c(=O)n2C` (stereo not drawn) here?
**A.** -31.9% (inactive)

**Q.** With `Oc1ccc(Br)cc1/C=N/Nc1ccccn1` as the compound, how does the growth rescue activity read?
**A.** -73.9% (inactive)

**Q.** For `Cn1cc(SCC(=O)Nc2nc3ccccc3s2)c2ccccc21`, which growth rescue activity is on record?
**A.** -62.4% (inactive)

**Q.** For `Cc1c(C2(O)CCCCC2)[nH]c2ccc(C(F)(F)F)cc12`, which growth rescue activity is on record?
**A.** -43.8% (inactive)

**Q.** For `CCC1=NN(C(=O)c2cccc(Br)c2)C(O)(c2ccc(Br)cc2)C1` (stereo not drawn), which growth rescue activity is on record?
**A.** -2.16% (inactive)

**Q.** With `O=S(=O)(c1ccc(Oc2ccc(Br)cc2)cc1)N1CCOCC1` as the compound, how does the growth rescue activity read?
**A.** 9.57% (inactive)

**Q.** Which growth rescue activity does the source give for `O=C(Nc1ccc(Cl)cc1C(=O)Nc1ccc(Br)cn1)c1ccco1` here?
**A.** -90.7% (inactive)

**Q.** Which growth rescue activity does the source give for `N#Cc1ccc(Sc2ccccn2)c([N+](=O)[O-])c1` here?
**A.** 7.91% (inactive)

**Q.** Which growth rescue activity does the source give for `Clc1ccc(C(Cn2ccnc2)OCc2c(Cl)cccc2Cl)c(Cl)c1` (stereo not drawn) here?
**A.** -69.1% (inactive)

**Q.** With `O=C(NCCC(=O)N1CCN(c2ccccc2O)CC1)c1ccc(Br)cc1` as the compound, how does the growth rescue activity read?
**A.** -9.2% (inactive)

**Q.** Which growth rescue activity does the source give for `Cc1ccc(NS(=O)(=O)c2ccc(N3CCN(c4ccc(O)cc4)CC3)c([N+](=O)[O-])c2)c(C)c1` here?
**A.** -52.6% (inactive)

**Q.** Which growth rescue activity does the source give for `O=C(Nc1ccc(C2=NCCN2)cc1)c1ccc(C(=O)Nc2ccc(C3=NCCN3)cc2)c(Cl)c1` here?
**A.** -69% (inactive)

**Q.** With `Oc1c(Cl)cc(Cl)cc1/C=N/NC(=S)NC1CC2C=CC1C2` (stereo not drawn) as the compound, how does the growth rescue activity read?
**A.** -42.5% (inactive)

**Q.** For `Cc1cccc(C)c1N1C(=O)C2ON(c3ccccc3)C(c3ccncc3)C2C1=O` (stereo not drawn), which growth rescue activity is on record?
**A.** -56.4% (inactive)

**Q.** With `O=C(COc1ccccc1F)Nc1nc(-c2ccccn2)cs1` as the compound, how does the growth rescue activity read?
**A.** -57.2% (inactive)

**Q.** With `COc1ccc(O)c(C(=O)CC(=O)c2ccccc2C)c1` as the compound, how does the growth rescue activity read?
**A.** -60.2% (inactive)

**Q.** For `O=C1c2cccc(Cl)c2C(=O)c2c1cccc2N1CCCC1`, which growth rescue activity is on record?
**A.** 11.5% (inactive)

**Q.** With `N#Cc1c(N)nc(SCc2ccccc2)c(C#N)c1-c1ccco1` as the compound, how does the growth rescue activity read?
**A.** -27.7% (inactive)

**Q.** With `Clc1ccc(CSC(Cn2ccnc2)c2ccc(Cl)cc2Cl)cc1` (stereo not drawn) as the compound, how does the growth rescue activity read?
**A.** -73% (inactive)

**Q.** With `c1ccc(CSc2ccc(-c3ccccn3)nn2)nc1` as the compound, how does the growth rescue activity read?
**A.** -28% (inactive)

**Q.** Which growth rescue activity does the source give for `Cc1cccc(N=Cc2[nH]c3ccc(Br)c(Cl)c3c2O)c1` here?
**A.** -14.7% (inactive)

**Q.** Which growth rescue activity does the source give for `Nc1cc([N+](=O)[O-])ccc1O` here?
**A.** -8.46% (inactive)

**Q.** For `FC(F)(F)Oc1ccc(NC(=S)Nc2ccc(OC(F)(F)F)cc2)cc1`, which growth rescue activity is on record?
**A.** 26% (inactive)

**Q.** For `Cn1nc(C(F)(F)F)c(C#N)c1N1CCN(c2ccc(F)cc2)CC1`, which growth rescue activity is on record?
**A.** -49.6% (inactive)

**Q.** For `CC1CCc2c(C(=O)Nc3ccccn3)csc2C1` (stereo not drawn), which growth rescue activity is on record?
**A.** -95.2% (inactive)

**Q.** For `CC(=O)NC(c1ccc(C)cc1)c1cc([N+](=O)[O-])c2cccnc2c1O` (stereo not drawn), which growth rescue activity is on record?
**A.** 61% (inactive)
